Test results: patent US20250346592A1 (Celgene Corporation, priority 2022, published 2025)

Legend:
hPAD4 enzyme [1] = target: T1, hPAD4 enzyme (Homo sapiens (Human), UniProt Q9UM07); experiment: RFMS2 assay (RapidFire mass spectrometry, TSTGGRQGSHH peptide substrate); type: biochemical; settings: 35 nM recombinant human PAD4, 500 μM TSTGGRQGSHH peptide, 30 minutes at room temperature; read-out: RFMS 2 IC50
How it was run: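 Recombinant human PAD4 (35 nM) with 500 μM TSTGGRQGSHH peptide in HEPES pH 7.4, 200 mM NaCl, 2 mM CaCl2, 5 mM DTT, 1.2% DMSO, 30 min at room temperature; 3-fold compound series, top 20 μM. Quenched with formic acid; substrate and citrullinated product quantified by RapidFire MRM mass spectrometry for IC50.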

hPAD4 enzyme [2] = target: T1, hPAD4 enzyme; experiment: RFMS1 assay (RapidFire mass spectrometry, BAEE substrate); type: biochemical; settings: 5 nM hPAD4, 250 μM BAEE, 30 min preincubation at 37° C., 90 min reaction; read-out: RFMS 1 IC50
Protocol: Compounds were solubilized in 100% DMSO to achieve a 10 mM compound concentration. Compound stock solutions were stored at RT. A series of dilutions were prepared in DMSO and mixed 8 times with 20 μL mixing volume. Final top concentration of compound in the assay is 50 μM. Final assay conditions were as follows: • Reaction volume: 26 μl • Assay buffer: 25 mM hepes, pH 7.5, 5 mM NaCl, 1 mM DTT, 0.2 mg/ml BSA, 0.01% CHAPS, 50 µM Calcium, and 5 μM TPEN • Final concentrations: 5 nM hPAD4 enzyme, 250 µM BAEE, and 0.5% DMSO • Total incubation time: 30 mins compound and enzyme preincubation at 37° C., 90 min enzyme/substrate reaction, 30 min reaction with phenyl glyoxal at 37° C. • Stop solution: 40 μl 5% TCA in ACN • 0.13 μL of compound solution was added to 13 μL of 10 nM PAD4 in assay buffer. After […] min 13 μl of 500 µM of BAEE was added in 25 mM hepes, pH 7.5, 5 mM NaCl, 1 mM DTT, 0.2 mg/ml BSA, 0.01% CHAPS, 50 μM Calcium, 5 μM TPEN was added and the reaction incubated for 90 min at 37° C. The enzymatic reaction was quenched by addition of 15 μl of 6.1N TCA, 100% Final Concentration is 20%, 35 μl of 8.5 mM phenyl glyoxal (final concentration 4 mM) is then added and the reaction is incubated for 30 min at 37° C.
After 30 minutes the plates are spun down to remove all precipitate. The enzyme reaction was quenched with an equal volume of methanol containing internal standard (modified citrulline). Samples were loaded onto the Rapid Fire RF300 system (Agilent) wherein they were first sipped for 1000 ms and then directly loaded to a C18 separations cartridge using a mixture of acetonitrile containing 0.01% formic acid for 3000 ms desalting. The flow rate of the mobile phase was 1.5 ml/min. Once the samples were eluted from the cartridge, a mobile phase of acetonitrile containing 0.01% formic acid was used to move the samples into the mass spectrometer for 4000 ms at a flow rate of 1.25 ml/min/Sciex API5500 triple quadrupole mass spectrometer (Applied Biosystems) equipped with ESI was used to analyze the peptidyl citrulline and internal standard ions.
MRM transition of product and internal standard were monitored at m/z 424.5 to 350.4 and m/z 293 to 247 respectively. The dwell time for each transition was set at 200 ms, and the ESI voltage was used at 5500 with a source temperature of 400° C. Extracted ion peaks for each transition were integrated using the Rapid Fire Integrator software. Peak area of analyte was normalized with internal standard.).
Compounds having an activity designated as “A” provided an IC50≤10 nM; compounds having an activity designated as “B” provided an IC50 11-100 nM; compounds having an activity designated as “C” provided an IC50 101-500 nM; compounds having an activity designated as “D” provided an IC50 501-1000 nM; compounds having an activity designated as “E” provided an IC50>1000 nM.

T1 sequence (Q9UM07 whole entry): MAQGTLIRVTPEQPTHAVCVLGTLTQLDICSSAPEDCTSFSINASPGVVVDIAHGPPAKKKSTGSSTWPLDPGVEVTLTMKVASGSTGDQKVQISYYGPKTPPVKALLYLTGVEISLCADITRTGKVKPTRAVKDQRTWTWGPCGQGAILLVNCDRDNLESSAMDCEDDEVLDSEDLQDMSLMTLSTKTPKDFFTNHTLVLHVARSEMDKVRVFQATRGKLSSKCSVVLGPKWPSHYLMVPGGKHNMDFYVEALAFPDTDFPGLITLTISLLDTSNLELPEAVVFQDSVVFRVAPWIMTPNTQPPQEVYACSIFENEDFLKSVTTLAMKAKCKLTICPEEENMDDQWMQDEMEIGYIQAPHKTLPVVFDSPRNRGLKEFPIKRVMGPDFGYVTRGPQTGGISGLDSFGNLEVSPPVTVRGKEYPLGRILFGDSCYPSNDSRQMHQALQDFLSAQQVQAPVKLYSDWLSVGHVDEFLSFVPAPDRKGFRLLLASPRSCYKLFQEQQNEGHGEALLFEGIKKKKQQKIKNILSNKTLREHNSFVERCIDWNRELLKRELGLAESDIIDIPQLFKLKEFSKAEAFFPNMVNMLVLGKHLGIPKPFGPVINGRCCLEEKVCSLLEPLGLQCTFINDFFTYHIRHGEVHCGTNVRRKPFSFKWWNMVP

Compound | IC50 (hPAD4 enzyme [1]) [nM] | IC50 (hPAD4 enzyme [2]) [nM]
CN[C@H](C)CN1CCc2cc3c(cc2C1=O)nc(-c1cc2cccc(OCC4CNC(=O)C4)c2n1CC1CC1)n3C (stereo partly drawn) [Example 229, 2-(1-(cyclopropylmethyl)-7-((5-oxopyrrolidin-3-yl)methoxy)-1H-indol-2-yl)-1-methyl-6-((R)-2-(methylamino)propyl)-1,6,7,8-tetrahydro-5H-imidazo[4,5-g]isoquinolin-5-one] | 101 to 500 | 501 to 1000
Cn1c(-c2cc3cccc(OCCn4ccnn4)c3n2CC2CC2)nc2cc3c(cc21)CCN(C[C@H](N)CF)C3=O [Example 181, (S)-2-(7-(2-(1H-1,2,3-triazol-1-yl)ethoxy)-1-(cyclopropylmethyl)-1H-indol-2-yl)-6-(2-amino-3-fluoropropyl)-1-methyl-1,6,7,8-tetrahydro-5H-imidazo[4,5-g]isoquinolin-5-one] | 11 to 100 | ≤ 10
Cn1c(-c2cc3cccc(OCc4ccn[nH]4)c3n2CC2CC2)nc2cc3c(cc21)CCN(C[C@H](N)CF)C3=O [Example 174, (S)-2-(7-((1H-pyrazol-5-yl)methoxy)-1-(cyclopropyl-methyl)-1H-indol-2-yl)-6-(2-amino-3-fluoropropyl)-1-methyl-1,6,7,8-tetrahydro-5H-imidazo[4,5-g] isoquinolin-5-one] | 11 to 100 | 11 to 100
Cn1c(-c2cc3cccc(/C=C/Cn4ccnc4)c3n2CC2CC2)nc2cc3c(cc21)CCN(C[C@H](N)CF)C3=O [Example 227, (S,E)-2-(7-(3-(1H-imidazol-1-yl)prop-1-en-1-yl)-1-(cyclopropylmethyl)-1H-indol-2-yl)-6-(2-amino-3-fluoropropyl)-1-methyl-1,6,7,8-tetrahydro-5H-imidazo[4,5-g]isoquinolin-5-one] | 11 to 100 | ≤ 10
COC1CCN(c2ccc3cc(-c4nc5cc6c(cc5n4C)CCN(C[C@H](N)CF)C6=O)n(CC4CC4)c3c2)CC1 [Example 68, (S)-6-(2-amino-3-fluoropropyl)-2-(1-(cyclopropylmethyl)-6-(4-methoxypiperidin-1-yl)-1H-indol-2-yl)-1-methyl-1,6,7,8-tetrahydro-5H-imidazo[4,5-g]isoquinolin-5-one] | > 1000 | 11 to 100
C[C@H](Cn1ccnc1)Oc1cccc2cc(-c3nc4cc5c(cc4n3C)CCN(C[C@H](N)CF)C5=O)n(CC3CC3)c12 [Example 223, 2-(7-(((R)-1-(1H-imidazol-1-yl)propan-2-yl)oxy)-1-(cyclopropylmethyl)-1H-indol-2-yl)-6-((S)-2-amino-3-fluoropropyl)-1-methyl-1,6,7,8-tetrahydro-5H-imidazo[4,5-g]isoquinolin-5-one] | 101 to 500 | ≤ 10
Cn1c(-c2cc3cccc(OCCc4ccno4)c3n2CC2CC2)nc2cc3c(cc21)CCN(C[C@H](N)CF)C3=O [Example 195, (S)-6-(2-amino-3-fluoropropyl)-2-(1-(cyclopropylmethyl)-7-(2-(isoxazol-5-yl)ethoxy)-1H-indol-2-yl)-1-methyl-1,6,7,8-tetrahydro-5H-imidazo[4,5-g]isoquinolin-5-one] | 11 to 100 | ≤ 10
Cc1cc(C(N)=O)c(F)cc1-c1ccc2cc(-c3nc4cc5c(cc4n3C)CCN(C[C@H](N)CF)C5=O)n(CC3CC3)c2n1 [Example 60, (S)-4-(2-(6-(2-amino-3-fluoropropyl)-1-methyl-5-oxo-5,6,7,8-tetrahydro-1H-imidazo[4,5-g]isoquinolin-2-yl)-1-(cyclopropylmethyl)-1H-pyrrolo[2,3-b]pyridin-6-yl)-2-fluoro-5-methylbenzamide] | 101 to 500 | 11 to 100
Cn1c(-c2cc3ccccc3n2CC2CC2)nc2cc3c(cc21)CCN(C[C@H](N)C1CC1)C3=O [Example 10, (R)-6-(2-amino-2-cyclopropylethyl)-2-(1-(cyclopropylmethyl)-1H-indol-2-yl)-1-methyl-1,6,7,8-tetrahydro-5H-imidazo[4,5-g]isoquinolin-5-one] | 101 to 500 | 101 to 500
CC(C)[C@@H](N)CN1CCc2cc3c(cc2C1=O)nc(-c1cc2ccccc2n1CC1CC1)n3C [Example 11, (R)-6-(2-amino-3-methylbutyl)-2-(1-(cyclopropylmethyl)-1H-indol-2-yl)-1-methyl-1,6,7,8-tetrahydro-5H-imidazo[4,5-g]isoquinolin-5-one] | > 1000 | > 1000
COc1cccc2cc(-c3nc4cc5c(cc4n3C)CCN(C[C@H](N)CF)C5=O)n(Cc3ncco3)c12 [Example 119, (S)-6-(2-amino-3-fluoropropyl)-2-(7-methoxy-1-(oxazol-2-ylmethyl)-1H-indol-2-yl)-1-methyl-1,6,7,8-tetrahydro-5H-imidazo[4,5-g]isoquinolin-5-one] | 101 to 500 | 11 to 100
Cc1nccn1CCOc1cccc2cc(-c3nc4cc5c(cc4n3C)CCN(C[C@H](N)CF)C5=O)n(CC3CC3)c12 [Example 165, (S)-6-(2-amino-3-fluoropropyl)-2-(1-(cyclopropyl-methyl)-7-(2-(2-methyl-1H-imidazol-1-yl)ethoxy)-1H-indol-2-yl)-1-methyl-1,6,7,8-tetrahydro-5H-imidazo [4,5-g]isoquinolin-5-one] | 101 to 500 | 11 to 100
Cn1c(-c2cc3cccc(OCCn4cncn4)c3n2CC2CC2)nc2cc3c(cc21)CCN(C[C@H](N)CF)C3=O [Example 150, (S)-2-(7-(2-(1H-1,2,4-triazol-1-yl)ethoxy)-1-(cyclopropylmethyl)-1H-indol-2-yl)-6-(2-amino-3-fluoropropyl)-1-methyl-1,6,7,8-tetrahydro-5H-imidazo[4,5-g]isoquinolin-5-one] | 101 to 500 | ≤ 10
COCCn1c(-c2nc3cc4c(cc3n2C)CCN(C[C@H](N)CF)C4=O)cc2cccc(OC)c21 [Example 102, (S)-6-(2-amino-3-fluoropropyl)-2-(7-methoxy-1-(2-methoxyethyl)-1H-indol-2-yl)-1-methyl-1,6,7,8-tetrahydro-5H-imidazo[4,5-g]isoquinolin-5-one] | 101 to 500 | 101 to 500
C[C@@H](N)CN1CCc2c(cc3nc(-c4cc5ccccc5n4CC4CC4)n(C)c3c2F)C1=O [Example 237, (R)-6-(2-aminopropyl)-2-(1-(cyclopropylmethyl)-1H-indol-2-yl)-9-fluoro-1-methyl-1,6,7,8-tetrahydro-5H-imidazo[4,5-g]isoquinolin-5-one] | 101 to 500 | 101 to 500
Cn1c(-c2cc3cccc(OCCO)c3n2CC2CC2)nc2cc3c(cc21)CCN(C[C@H](N)CF)C3=O [Example 205, (S)-6-(2-amino-3-fluoropropyl)-2-(1-(cyclopropylmethyl)-7-(2-hydroxyethoxy)-1H-indol-2-yl)-1-methyl-1,6,7,8-tetrahydro-5H-imidazo[4,5-g]isoquinolin-5-one] | 101 to 500 | 11 to 100
Cn1c(-c2cc3ccccc3n2CC2CC2)nc2cc3c(cc21)CCN(C[C@H]1COCCN1)C3=O [Example 13, (S)-2-(1-(cyclopropylmethyl)-1H-indol-2-yl)-1-methyl-6-(morpholin-3-ylmethyl)-1,6,7,8-tetrahydro-5H-imidazo[4,5-g]isoquinolin-5-one] | 501 to 1000 | 101 to 500
COC(=O)NCCOc1cccc2cc(-c3nc4cc5c(cc4n3C)CCN(C[C@H](N)CF)C5=O)n(CC3CC3)c12 [Example 207, methyl (S)-(2-((2-(6-(2-amino-3-fluoropropyl)-1-methyl-5-oxo-5,6,7,8-tetrahydro-1H-imidazo[4,5-g]isoquinolin-2-yl)-1-(cyclopropylmethyl)-1H-indol-7-yl)oxy)ethyl)carbamate] | 101 to 500 | 11 to 100
